The subject of assay [1] is breast cancer cell line MX-1. The assay can be described thus: MX-1 cell line proliferation assay (3-day). The format is cell-based. The following applies: Homo sapiens, MX1; MX-1 cells, 72 h incubation, Cell Titer Glo; read-out: Cellular proliferation: EC50. The procedure:
The impact of compounds of the Examples on cancer cell proliferation was determined using the breast cancer cell line MX-1 (ATCC) in a 3-day proliferation assay. MX-1 cells were maintained in RPMI supplemented with 10% FBS at 37° C. and an atmosphere of 5% CO2. For compound testing, MX-1 cells were plated in 96-well black bottom plates at a density of 5000 cells/well in 90 μL of culture media and incubated at 37° overnight to allow cell adhesion and spreading. Compound dilution series were prepared in DMSO via a 3-fold serial dilution from 3 mM to 0.1 μM. The DMSO dilution series were then diluted 1:100 in phosphate buffered saline, and 10 μL of the resulted solution were added to the appropriate wells of the MX-1 cell plate. The final compound concentrations in the wells were 3, 1, 0.3, 0.1, 0.03, 0.01, 0.003, 0.001, 0.0003 and 0.0001 μM.
Luminescence readings from the Cell Titer Glo assay were normalized to the DMSO treated cells and analyzed using the GraphPad Prism software with sigmoidal curve fitting to obtain EC50s.
A general note: In ATP-based viability assays light output follows the ATP content of the culture.

Assay [2] concerns the target T1, second (BD2: amino acids E352-E168) bromodomain of BRD4 (Homo sapiens, UniProt O60885).
T1 construct: protocol
The experiment in a line: TR-FRET bromodomain binding assay, BRD4 BD2. The following applies: TR-FRET assay protocol (A-G, compound concentration range); Ki calculated from IC50, probe Kd and probe concentration; read-out: TR-FRET Binding Ki: BRD4 (BDII_E352-M457). The method, boiled down: (§1)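 Compounds were serially diluted in DMSO, diluted into pH 6.0 phosphate buffer with NaCl, EDTA, Triton X-100 and DTT, then combined with His-tagged bromodomain and an Alexa647-labeled BET-inhibitor probe. TR-FRET was read, percent inhibition fitted to give IC50, and Ki derived using probe Kd.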

For assay [3], the target named is T2, first (BD1: amino acids K57-E168) bromodomain of BRD4 (Homo sapiens, UniProt O60885).
T2 construct: His-tagged first (BD1: amino acids K57-E168)
The assay can be described thus: TR-FRET bromodomain binding assay, BRD4 BD1. The following applies: TR-FRET assay protocol (A-G, compound concentration range); Ki calculated from IC50, probe Kd and probe concentration; read-out: TR-FRET Binding Ki: BRD4 (BDI_K57-E168). An outline of the steps: as §1

By Ki is commonly meant a dissociation constant, usually derived from enzyme kinetics or from competition with a known ligand. On to `COc1cc(=O)n(C)nc1-c1ccccc1Oc1ccc(Cl)cc1` [Example 37, 6-[2-(4-chlorophenoxy)phenyl]-5-methoxy-2-methylpyridazin-3(2H)-one], for which, in assay [1], the EC50 came out at 10000 nM. The Ki in assay [2] was 1790 nM; in assay [3] it was 1730 nM.
The like results for `CCOC(=O)C1CCN(c2cc(=O)n(C)nc2-c2ccccc2Oc2ccccc2)C1` (stereo not drawn) [Example 49, ethyl 1-[1-methyl-6-oxo-3-(2-phenoxyphenyl)-1,6-dihydropyridazin-4-yl]pyrrolidine-3-carboxylate] were, in that order, 7110 nM, 748 nM and 6680 nM.
In the same order, the values of `COC(=O)CNc1cc(=O)n(C)nc1-c1ccccc1Oc1ccccc1` [Example 50, methyl N-[1-methyl-6-oxo-3-(2-phenoxyphenyl)-1,6-dihydropyridazin-4-yl]glycinate] are 9520 nM, 2420 nM and 2100 nM.
The like results for `Cn1nc(-c2ccccc2Oc2ccccc2)c(-c2ccnc(F)c2)cc1=O` [Example 54, 5-(2-fluoropyridin-4-yl)-2-methyl-6-(2-phenoxyphenyl)pyridazin-3(2H)-one] were, in that order, 4240 nM, 356 nM and 4120 nM.
`Cn1nc(-c2ccccc2Oc2ccccc2)c(-c2cc[nH]c(=O)c2)cc1=O` [Example 55, 2-methyl-5-(2-oxo-1,2-dihydropyridin-4-yl)-6-(2-phenoxyphenyl)pyridazin-3(2H)-one]: the EC50 in assay [1] came to 13700 nM. Further, the Ki in assay [2] is 778 nM; in assay [3] it was 6890 nM.
In the same order, the values of `Cn1ccc(-c2cc(=O)n(C)nc2-c2ccccc2Oc2ccccc2)cc1=O` [Example 56, 2-methyl-5-(1-methyl-2-oxo-1,2-dihydropyridin-4-yl)-6-(2-phenoxyphenyl)pyridazin-3(2H)-one] are 10400 nM, 341 nM and 2900 nM.
In the same order, the values of `COc1cc(-c2cc(=O)n(C)nc2-c2ccccc2Oc2ccccc2)ccn1` [Example 57, 5-(2-methoxypyridin-4-yl)-2-methyl-6-(2-phenoxyphenyl)pyridazin-3(2H)-one] are 1860 nM, 250 nM and 598 nM.
Turning to `COc1cc(-c2cc(=O)n(C)nc2-c2cc(NS(C)(=O)=O)ccc2Oc2ccccc2)ccn1` [Example 58, N-{3-[4-(2-methoxypyridin-4-yl)-1-methyl-6-oxo-1,6-dihydropyridazin-3-yl]-4-phenoxyphenyl}methanesulfonamide], the EC50 in assay [1] was 444 nM. Also, the results for the inhibitory constant (Ki) in assay [2] and in assay [3] were 63.5 nM and 264 nM, respectively.
With `CCOC(=O)c1cccc(-c2cc(=O)n(C)nc2-c2ccccc2Oc2ccccc2)c1` [Example 59, ethyl 3-[1-methyl-6-oxo-3-(2-phenoxyphenyl)-1,6-dihydropyridazin-4-yl]benzoate], the EC50 in assay [1] is > 30000 nM. Moreover, the inhibition constant (Ki) in assay [2] was 2110 nM; in assay [3], 9790 nM.
In the same order, the values of `CN1CCN(Cc2cccc(-c3cc(=O)n(C)nc3-c3ccccc3Oc3ccccc3)c2)CC1` [Example 60, 2-methyl-5-{3-[(4-methylpiperazin-1-yl)methyl]phenyl}-6-(2-phenoxyphenyl)pyridazin-3(2H)-one] are > 3000 nM, 413 nM and 170 nM.
As to `CN1CCN(Cc2ccc(-c3cc(=O)n(C)nc3-c3ccccc3Oc3ccccc3)cc2)CC1` [Example 61, 2-methyl-5-{4-[(4-methylpiperazin-1-yl)methyl]phenyl}-6-(2-phenoxyphenyl)pyridazin-3(2H)-one], the EC50 in assay [1] was 911 nM. The figures for the Ki in assay [2] and in assay [3] were 48.9 nM and 33.1 nM, respectively.
As for `CN1CCN(Cc2ccc(-c3cc(=O)n(C)nc3-c3cc(NS(C)(=O)=O)ccc3Oc3ccccc3)cc2)CC1` [Example 62, N-[3-(1-methyl-4-{4-[(4-methylpiperazin-1-yl)methyl]phenyl}-6-oxo-1,6-dihydropyridazin-3-yl)-4-phenoxyphenyl]methanesulfonamide], the EC50 in assay [1] amounted to 281 nM. The Ki in assay [2] is 5.13 nM; in assay [3], 7.49 nM.
In the same order, the values of `Cc1ccc(-c2cc(=O)n(C)nc2-c2cc(NS(C)(=O)=O)ccc2Oc2ccccc2)cc1` [Example 63, N-{3-[1-methyl-4-(4-methylphenyl)-6-oxo-1,6-dihydropyridazin-3-yl]-4-phenoxyphenyl}methanesulfonamide] are 739 nM, 23.9 nM and 85.2 nM.
In the same order, the values of `Cn1nc(-c2ccccc2Oc2ccccc2)c(-c2ccc(CN3CCOCC3)cc2)cc1=O` [Example 66, 2-methyl-5-[4-(morpholin-4-ylmethyl)phenyl]-6-(2-phenoxyphenyl)pyridazin-3(2H)-one] are 2480 nM, 159 nM and 141 nM.
As to `Cn1nc(-c2ccccc2Oc2ccccc2)c(-c2ccc(CN3CCCCC3)cc2)cc1=O` [Example 67, 2-methyl-6-(2-phenoxyphenyl)-5-[4-(piperidin-1-ylmethyl)phenyl]pyridazin-3(2H)-one], the EC50 in assay [1] turned out to be 1730 nM. Moreover, the inhibition constant Ki in assay [2] was 92.5 nM; in assay [3] it was 70.8 nM.
Regarding `CC1CCN(Cc2ccc(-c3cc(=O)n(C)nc3-c3ccccc3Oc3ccccc3)cc2)CC1` [Example 68, 2-methyl-5-{4-[(4-methylpiperidin-1-yl)methyl]phenyl}-6-(2-phenoxyphenyl)pyridazin-3(2H)-one], in assay [1], the EC50 was 1110 nM. The inhibition constant (Ki) in assay [2] was 71.9 nM; in assay [3], 63.1 nM.
In the same order, the values of `CCN(CC)Cc1ccc(-c2cc(=O)n(C)nc2-c2ccccc2Oc2ccccc2)cc1` [Example 69, 5-{4-[(diethylamino)methyl]phenyl}-2-methyl-6-(2-phenoxyphenyl)pyridazin-3(2H)-one] are > 3000 nM, 225 nM and 98 nM.
The like results for `Cn1nc(-c2ccccc2Oc2ccccc2)c(-c2ccc(CN3CCNCC3)cc2)cc1=O` [Example 70, 2-methyl-6-(2-phenoxyphenyl)-5-[4-(piperazin-1-ylmethyl)phenyl]pyridazin-3(2H)-one] were, in that order, 815 nM, 62 nM and 89.1 nM.
In the same order, the values of `Cn1nc(-c2ccccc2Oc2ccccc2)c(-c2ccc(CN3CCCC3)cc2)cc1=O` [Example 71, 2-methyl-6-(2-phenoxyphenyl)-5-[4-(pyrrolidin-1-ylmethyl)phenyl]pyridazin-3(2H)-one] are 398 nM, 133 nM and 62.2 nM.
As to `CC(O)c1ccc(-c2cc(=O)n(C)nc2-c2ccccc2Oc2ccccc2)cc1` (stereo not drawn) [Example 72, 5-[4-(1-hydroxyethyl)phenyl]-2-methyl-6-(2-phenoxyphenyl)pyridazin-3(2H)-one], in assay [1], the EC50 was 3750 nM. Moreover, the Ki in assay [2] is 128 nM; in assay [3], 225 nM.
In the same order, the values of `CC(C)C(O)c1ccc(-c2cc(=O)n(C)nc2-c2ccccc2Oc2ccccc2)cc1` (stereo not drawn) [Example 73, 5-[4-(1-hydroxy-2-methylpropyl)phenyl]-2-methyl-6-(2-phenoxyphenyl)pyridazin-3(2H)-one] are 1130 nM, 307 nM and 462 nM.
In the same order, the values of `CCC(O)c1ccc(-c2cc(=O)n(C)nc2-c2ccccc2Oc2ccccc2)cc1` (stereo not drawn) [Example 75, 5-[4-(1-hydroxypropyl)phenyl]-2-methyl-6-(2-phenoxyphenyl)pyridazin-3(2H)-one] are 1390 nM, 195 nM and 264 nM.
In the same order, the values of `COCc1ccc(-c2cc(=O)n(C)nc2-c2ccccc2Oc2ccccc2)cc1` [Example 78, 5-[4-(methoxymethyl)phenyl]-2-methyl-6-(2-phenoxyphenyl)pyridazin-3(2H)-one] are > 3000 nM, 211 nM and 435 nM.
Take `Cn1nc(-c2ccccc2Oc2ccccc2)c(-c2ccc(CO)cc2)cc1=O` [Example 79, 5-[4-(hydroxymethyl)phenyl]-2-methyl-6-(2-phenoxyphenyl)pyridazin-3(2H)-one]: the EC50 in assay [1] was determined as 1870 nM. In addition, the Ki is 87.5 nM in assay [2] and 126 nM in assay [3].
In the same order, the values of `Cn1nc(-c2ccccc2Oc2ccccc2)c(C2=CCN(C(=O)OC(C)(C)C)CC2)cc1=O` [Example 81, tert-butyl 4-[1-methyl-6-oxo-3-(2-phenoxyphenyl)-1,6-dihydropyridazin-4-yl]-3,6-dihydropyridine-1(2H)-carboxylate] are > 3000 nM, 733 nM and 1120 nM.

The record behind these values is patent US9561231B2 (AbbVie Inc., priority 2012, dated 2017).
